Some test systems named below: BT-549; COLO 205; DU-145; HCC 2998; HCT-15; IGROV-1; MCF7; MDA-MB-231; Malme-3M; NCI-H226; NCI-H460; OVCAR-5; PC-3; SK-MEL-5; SN12C; SNB-19; U-251; UACC-257; UACC-62; SR.
Holding throughout (assay): growth of human tumour cells (NCI), 48 h

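48-hour exposure; five concentrations; linearly interpolated endpoints. At the GI50, growth is halved.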 Calls of active or inactive are those of the source. Rule as the data show it: active = GI50 up to about 1.1 µM and inactive = higher.

As to `CC(C)(C)c1ccc(OCC(=O)O)c(Cl)c1`, the GI50 was > 100 µM (inactive) with BT-549; > 100 µM (inactive) in the experiment with COLO 205; > 100 µM (inactive) in the experiment with DU-145; > 100 µM (inactive) in the experiment with HCC 2998; more than 100 µM with HCT-15; > 100 µM (inactive) in the experiment on IGROV-1. For the same compound, the GI50 with MCF7, with MDA-MB-231, in the experiment on Malme-3M, with NCI-H226, in the experiment with NCI-H460 and in the experiment on OVCAR-5 was > 100 µM (inactive) in each case. Also, the GI50 with PC-3, in the experiment on SK-MEL-5, in the experiment on SN12C, in the experiment on SNB-19, with U-251 and in the experiment with UACC-257 was > 100 µM (inactive) in each case. Also, the GI50 with UACC-62 is > 100 µM (inactive).
For the compound `CC(C)(C)c1cc(/C=C2/NC(=O)NC2=O)cc(C(C)(C)C)c1O`, the GI50 was 13.7 µM (inactive) with BT-549; 14.4 µM (inactive) with COLO 205; 15.6 µM (inactive) in the experiment on DU-145; 13.2 µM with HCT-15; 16 µM (inactive) in the experiment with IGROV-1; 13 µM (inactive) in the experiment with MCF7. For the same compound, the GI50 was 12.6 µM (inactive) with MDA-MB-231; 19.5 µM (inactive) in the experiment on Malme-3M; 14.8 µM (inactive) in the experiment with NCI-H226; 14.5 µM (inactive) with NCI-H460; 15.9 µM (inactive) with OVCAR-5; 7.46 µM (inactive) with PC-3. Also, the GI50 in the experiment with SK-MEL-5 was 13.7 µM (inactive); with SN12C, 15.2 µM (inactive); in the experiment on SR, 12.8 µM (inactive); with U-251, 12.8 µM (inactive); in the experiment with UACC-257, 16 µM (inactive); in the experiment on UACC-62 it was 16.5 µM (inactive).
Regarding `CC(C)N/C(=N\C#N)NS(=O)(=O)c1cnccc1Nc1ccc(Cl)cc1`, the GI50 in the experiment on BT-549 was > 100 µM (inactive); in the experiment on COLO 205, > 100 µM (inactive); with DU-145, > 100 µM (inactive); in the experiment on HCC 2998, > 100 µM (inactive); in the experiment on HCT-15, more than 100 µM; with IGROV-1, > 100 µM (inactive). The GI50 in the experiment on MCF7, with MDA-MB-231, in the experiment on Malme-3M, with NCI-H226, with OVCAR-5 and in the experiment with PC-3 was > 100 µM (inactive) each time. The GI50 in the experiment on SK-MEL-5, in the experiment on SN12C, with SNB-19, in the experiment on U-251, in the experiment with UACC-257 and in the experiment on UACC-62 was > 100 µM (inactive) each time.
Regarding `CN1C2CCC1C(C(O)c1ccccc1[N+](=O)[O-])C(=O)C2` (stereo not given), the GI50 in the experiment on BT-549 was 43.9 µM (inactive); in the experiment on COLO 205, 34.6 µM (inactive); with DU-145 it was 28.3 µM (inactive); with HCC 2998 it was > 100 µM (inactive); in the experiment on HCT-15 it was 19.5 µM; in the experiment on IGROV-1, 24.9 µM (inactive). Also, the GI50 in the experiment with MCF7 was 39.1 µM (inactive); in the experiment with MDA-MB-231, 64 µM (inactive); with Malme-3M, > 100 µM (inactive); with NCI-H226 it was 24.2 µM (inactive); with NCI-H460, > 100 µM (inactive); in the experiment with OVCAR-5, > 100 µM (inactive). Besides, the GI50 was 45.7 µM (inactive) with PC-3; 31.1 µM (inactive) in the experiment on SK-MEL-5; 33.7 µM (inactive) in the experiment with SN12C; > 100 µM (inactive) with SNB-19; > 100 µM (inactive) in the experiment with U-251; > 100 µM (inactive) in the experiment on UACC-257. The GI50 with UACC-62 is > 100 µM (inactive).
For the compound `CCCCCCCCCc1c(O)c(O)c(CCCCCCCCC)c(CCCCCCCCC)c1CCCCCCCCC`, the GI50 in the experiment on BT-549 is > 100 µM (inactive); in the experiment on COLO 205, > 100 µM (inactive); in the experiment on DU-145, > 100 µM (inactive); in the experiment on HCC 2998, > 100 µM (inactive); in the experiment on HCT-15, more than 100 µM; in the experiment on IGROV-1 it was > 100 µM (inactive). In addition, the GI50 with MCF7 is 8.18 µM (inactive); with MDA-MB-231, > 100 µM (inactive); with Malme-3M, 96.8 µM (inactive); in the experiment with NCI-H226 it was > 100 µM (inactive); in the experiment with NCI-H460 it was > 100 µM (inactive); in the experiment on OVCAR-5, > 100 µM (inactive). The GI50 with PC-3, with SK-MEL-5, with SN12C, with SNB-19, in the experiment with U-251 and in the experiment on UACC-257 was > 100 µM (inactive) each time. Also, the GI50 with UACC-62 was > 100 µM (inactive).
For `O=C1/C(=C/c2ccc([N+](=O)[O-])cc2)Sc2scc(-c3cccc([N+](=O)[O-])c3)[n+]21`, the GI50 in the experiment with BT-549 was 5.36 µM (inactive); with COLO 205 it was 1.85 µM (inactive); in the experiment with DU-145 it was 10.6 µM (inactive); with HCC 2998, 5.56 µM (inactive); with HCT-15 it was 2.26 µM; with IGROV-1 it was 2.91 µM (inactive). Further, the GI50 in the experiment with MCF7 was 4.09 µM (inactive); in the experiment on MDA-MB-231, 4.91 µM (inactive); in the experiment on Malme-3M it was 1.33 µM (inactive); in the experiment on NCI-H226, 11.5 µM (inactive); with NCI-H460, 8.99 µM (inactive); in the experiment with OVCAR-5, 8.89 µM (inactive). Besides, the GI50 with PC-3 was 12.5 µM (inactive); in the experiment with SK-MEL-5, 5.86 µM (inactive); in the experiment on SN12C it was 4.1 µM (inactive); in the experiment on SNB-19, 14.8 µM (inactive); with U-251, 10.7 µM (inactive); with UACC-257 it was 5.32 µM (inactive). For the same compound, the GI50 with UACC-62 was 8.79 µM (inactive).
Take `Cc1ccc2ccc(=O)oc2c1`: the GI50 in the experiment on BT-549, in the experiment with COLO 205, in the experiment with DU-145, in the experiment on IGROV-1, with MCF7 and in the experiment with MDA-MB-231 was > 100 µM (inactive) in each case. Besides, the GI50 in the experiment with Malme-3M, in the experiment with NCI-H226, in the experiment on NCI-H460, in the experiment on OVCAR-5, in the experiment on PC-3 and with SK-MEL-5 was > 100 µM (inactive) each time. Moreover, the GI50 in the experiment with SN12C is > 100 µM (inactive); in the experiment on SR, > 100 µM (inactive); in the experiment on U-251, > 100 µM (inactive); in the experiment on UACC-257, > 100 µM (inactive); in the experiment on UACC-62, 74.5 µM (inactive).
With `N=C(CC(=O)NOC(=O)c1ccccc1)NOC(=O)c1ccccc1`, the GI50 in the experiment with BT-549 is 25.2 µM (inactive); in the experiment with COLO 205, 26.6 µM (inactive); in the experiment with DU-145, > 100 µM (inactive); in the experiment with HCT-15, 38.5 µM; with IGROV-1, 14.7 µM (inactive); with MCF7, 25.8 µM (inactive). The GI50 in the experiment with MDA-MB-231 is > 100 µM (inactive); in the experiment with Malme-3M, > 100 µM (inactive); in the experiment on NCI-H226, 12.8 µM (inactive); in the experiment with NCI-H460, 31.1 µM (inactive); in the experiment with OVCAR-5, 59.6 µM (inactive); in the experiment with PC-3, > 100 µM (inactive). Besides, the GI50 with SK-MEL-5 was 36.2 µM (inactive); with SN12C, 29.4 µM (inactive); in the experiment with SNB-19, 71.6 µM (inactive); with U-251 it was 34.1 µM (inactive); with UACC-257, > 100 µM (inactive); with UACC-62, 25.9 µM (inactive).
Consider `COC1(OC)CC(CO)(COc2cc(Cl)nc(N)n2)C1`, for which the GI50 with BT-549 is > 100 µM (inactive); in the experiment on COLO 205 it was > 100 µM (inactive); in the experiment on DU-145, > 100 µM (inactive); with HCC 2998, > 100 µM (inactive); in the experiment on HCT-15 it was more than 100 µM; with IGROV-1, > 100 µM (inactive). In addition, the GI50 in the experiment on MCF7, in the experiment with MDA-MB-231, in the experiment with Malme-3M, in the experiment with NCI-H226, in the experiment on NCI-H460 and in the experiment on OVCAR-5 was > 100 µM (inactive) in each case. For the same compound, the GI50 in the experiment on PC-3, in the experiment on SK-MEL-5, with SN12C, with SNB-19, with U-251 and in the experiment with UACC-257 was > 100 µM (inactive) throughout. Moreover, the GI50 in the experiment with UACC-62 was > 100 µM (inactive).
In the case of `O=C(CCCN1CCC2(CC1)CC(=O)N(N1CCCCCC1)C2=O)c1ccc(F)cc1`, the GI50 in the experiment with BT-549 was 65.5 µM (inactive); in the experiment on COLO 205, > 100 µM (inactive); with DU-145 it was > 100 µM (inactive); with HCT-15 it was more than 100 µM; in the experiment with IGROV-1, > 100 µM (inactive); with MCF7, 46.2 µM (inactive). For the same compound, the GI50 in the experiment with MDA-MB-231 was 82.6 µM (inactive); in the experiment with Malme-3M it was 52.8 µM (inactive); with OVCAR-5, 41.7 µM (inactive); with PC-3, > 100 µM (inactive); with SK-MEL-5 it was 34.4 µM (inactive); with SN12C it was > 100 µM (inactive). Moreover, the GI50 in the experiment with SR is 29.2 µM (inactive); in the experiment with U-251 it was > 100 µM (inactive); in the experiment on UACC-257, 26.7 µM (inactive); in the experiment on UACC-62, > 100 µM (inactive).
In the case of `COC(=O)C1=C(C(=O)OC)SC(=C2S[C@@H]3[C@@H]4C[C@H]([C@@H]3S2)[C@H]2C(=O)OC(=O)[C@@H]42)S1`, the GI50 in the experiment with BT-549 is > 100 µM (inactive); in the experiment with COLO 205, > 100 µM (inactive); with DU-145, > 100 µM (inactive); with HCC 2998, > 100 µM (inactive); in the experiment on HCT-15, more than 100 µM; in the experiment on IGROV-1, > 100 µM (inactive). In addition, the GI50 in the experiment with MCF7, in the experiment on MDA-MB-231, in the experiment with Malme-3M, with NCI-H226, in the experiment with OVCAR-5 and in the experiment on PC-3 was > 100 µM (inactive) in each case. The GI50 with SK-MEL-5, with SN12C, in the experiment with SNB-19, in the experiment with U-251, in the experiment on UACC-257 and in the experiment with UACC-62 was > 100 µM (inactive) in each case.

The values above are taken from ChEMBL document CHEMBL1201862, “PubChem BioAssay data set” (2004).
